Experimental findings from US20260042770A1, “NOVEL SULFONES AND THEIR USE AS NEUROPROTECTIVE AND/OR NEURORESTORATIVE AGENTS” (GENECODE, priority 2022, published 2026) are described below.

The term EC50 denotes the concentration needed to bring the measured effect to its halfway point. The low end stands for higher potency in that assay, the high end for lower potency in that assay.

Structures are written as SMILES.

The target in the assay is T1, GFRα1-RET (Homo sapiens, UniProt P56159).
T1 construct: expressed in transfected cells; host or cells: MG87 murine fibroblasts stably transfected with PathDetect Elk-1, GFRα1 and RET
T1 sequence (P56159 25-429 limits assumed): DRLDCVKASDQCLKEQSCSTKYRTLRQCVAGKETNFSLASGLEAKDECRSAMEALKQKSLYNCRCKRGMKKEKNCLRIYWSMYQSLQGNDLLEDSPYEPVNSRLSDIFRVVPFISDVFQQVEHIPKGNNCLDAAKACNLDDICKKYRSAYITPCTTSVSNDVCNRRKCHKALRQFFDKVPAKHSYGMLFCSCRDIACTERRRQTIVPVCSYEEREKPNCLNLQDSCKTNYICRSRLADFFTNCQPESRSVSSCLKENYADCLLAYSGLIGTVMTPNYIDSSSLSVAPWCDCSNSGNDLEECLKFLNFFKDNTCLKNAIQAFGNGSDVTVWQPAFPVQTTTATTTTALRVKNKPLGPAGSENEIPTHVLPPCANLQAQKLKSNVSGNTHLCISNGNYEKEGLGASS
Put plainly: Elk1 luciferase reporter-gene assay in cells expressing GFRα1-RET. It is filed as cell-based. As to conditions: agonist/activator activity of Elk1 signaling; MG87 murine fibroblast stably transfected with PathDetect Elk-1, GFRα1 and RET; 6 concentrations, duplicate, two independent runs. Here is the method: For EC50 determination, a dose-response test was performed using 6 concentrations of each tested compound. Dose-response curves were fitted using the sigmoidal dose-response (variable slope) analysis in GraphPad Prism program (Graph Pad Inc) and EC50 of agonist/activator activity was calculated. Dose-response experiments were all performed in duplicate, two times independently.
For orientation: In a reporter assay the amount or activity of a reporter protein is the signal.
With `Cc1c(Cl)cc(S(=O)(=O)CC(C)(C)C)cc1N1[C@@H]2CC[C@H]1CN(C(=O)c1ccc(F)cc1Cl)C2` [Cpd 036, [(1S,5R)-8-[3-chloro-5-(2,2-dimethylpropylsulfonyl)-2-methyl-phenyl]-3,8-diazabicyclo[3.2.1]octan-3-yl]-(2-chloro-4-fluoro-phenyl)methanone], the EC50 was less than 1 µM. Turning to `O=C(c1ccc(F)cc1Cl)N1C[C@H]2CC[C@@H](C1)N2c1cc(S(=O)(=O)C2CCN(CCc3ccccc3)CC2)ccc1O` [Cpd 031, (2-chloro-4-fluoro-phenyl)-[(1S,5R)-8-[2-hydroxy-5-[[1-(2-phenylethyl)-4-piperidyl]sulfonyl]phenyl]-3,8-diazabicyclo[3.2.1]octan-3-yl]methanone], the EC50 was 1 to 10 µM. Under `CC(C)(C)CS(=O)(=O)c1cc(Cl)c(Cl)c(N2[C@@H]3CC[C@H]2CN(C(=O)c2ccc(F)cc2Cl)C3)c1` [Cpd 035, (2-chloro-4-fluoro-phenyl)-[(1S,5R)-8-[2,3-dichloro-5-(2,2-dimethylpropylsulfonyl)phenyl]-3,8-diazabicyclo[3.2.1]octan-3-yl]methanone] stands less than 1 µM.

The compound `CCC(CCc1ccccc1)S(=O)(=O)c1ccc(OC)c(N2C3CCC2CN(C(=O)c2ccc(F)cc2Cl)C3)c1` (racemic) [Cpd 025, (2-chloro-4-fluoro-phenyl)-[(1S,5R)-8-[5-[(1SR)-1-ethyl-3-phenyl-propyl]sulfonyl-2-methoxy-phenyl]-3,8-diazabicyclo[3.2.1]octan-3-yl]methanone] returned a concentration for a half-maximal effect (EC50) of 1 to 10 µM. Under `CCC(CC)S(=O)(=O)c1ccc(OC)c(N2[C@@H]3CC[C@H]2CN(C(=O)c2ccc(F)cc2Cl)C3)c1` [Cpd 005, (2-chloro-4-fluoro-phenyl)-[(1S,5R)-8-[5-(1-ethylpropylsulfonyl)-2-methoxy-phenyl]-3,8-diazabicyclo[3.2.1]octan-3-yl]methanone] stands 1 to 10 µM. Next, `COc1ccc(S(=O)(=O)Cc2ccccc2)cc1N1[C@@H]2CC[C@H]1CN(C(=O)c1ccc(F)cc1Cl)C2` [Cpd 014, [(1S,5R)-8-(5-benzylsulfonyl-2-methoxy-phenyl)-3,8-diazabicyclo[3.2.1]octan-3-yl]-(2-chloro-4-fluoro-phenyl)methanone]: 10 to 50 µM; `COc1ccc(S(=O)(=O)C2CCCC2)cc1N1CCN(C(=O)c2ccc(F)cc2Cl)CC1C` (racemic) [Cpd 006, (2-chloro-4-fluoro-phenyl)-[rac-(3S)-4-(5-cyclopentylsulfonyl-2-methoxy-phenyl)-3-methyl-piperazin-1-yl]methanone]: 1 to 10 µM.

The compound `COc1ccc(S(=O)(=O)C2CCC2)cc1N1[C@@H]2CC[C@H]1CN(C(=O)c1ccc(F)cc1Cl)C2` [Cpd 010, (2-chloro-4-fluoro-phenyl)-[(1S,5R)-8-(5-cyclobutylsulfonyl-2-methoxy-phenyl)-3,8-diazabicyclo[3.2.1]octan-3-yl]methanone] yielded an EC50 of 1 to 10 µM. Next, `CC(C)(C)CS(=O)(=O)c1cc(Cl)c(OCCO)c(N2[C@@H]3CC[C@H]2CN(C(=O)c2ccc(F)cc2Cl)C3)c1` [Cpd 034, [(1S,5R)-8-[3-chloro-5-(2,2-dimethylpropylsulfonyl)-2-(2-hydroxyethoxy)phenyl]-3,8-diazabicyclo[3.2.1]octan-3-yl]-(2-chloro-4-fluoro-phenyl)methanone]: 1 to 10 µM; `CCC(CC)S(=O)(=O)c1ccc(OC)c(N2CCN(C(=O)c3ccc(F)cc3C(F)(F)F)CC2)c1` [Cpd 001, [4-[5-(1-ethylpropylsulfonyl)-2-methoxy-phenyl]piperazin-1-yl]-[4-fluoro-2-(trifluoromethyl)phenyl]methanone]: 10 to 50 µM; `Cc1cc(S(=O)(=O)CC(C)(C)C)cc(N2[C@@H]3CC[C@H]2CN(C(=O)c2ccc(F)cc2Cl)C3)c1O` [Cpd 032, (2-chloro-4-fluoro-phenyl)-[(1S,5R)-8-[5-(2,2-dimethylpropylsulfonyl)-2-hydroxy-3-methyl-phenyl]-3,8-diazabicyclo[3.2.1]octan-3-yl]methanone]: 1 to 10 µM.

In turn, `COc1ccc(S(=O)(=O)C2CCCC2)cc1N1[C@@H]2CC[C@H]1CN(C(=O)c1ccc(F)cc1Cl)C2` [Cpd 004, (2-chloro-4-fluoro-phenyl)-[(1S,5R)-8-(5-cyclopentylsulfonyl-2-methoxy-phenyl)-3,8-diazabicyclo[3.2.1]octan-3-yl]methanone] returned an EC50 of 1 to 10 µM. Under `COc1ccc(S(=O)(=O)C(C)CCCc2ccccc2)cc1N1C2CCC1CN(C(=O)c1ccc(F)cc1Cl)C2` (racemic) [Cpd 024, (2-chloro-4-fluoro-phenyl)-[(1S,5R)-8-[2-methoxy-5-[(1SR)-1-methyl-4-phenyl-butyl]sulfonyl-phenyl]-3,8-diazabicyclo[3.2.1]octan-3-yl]methanone] stands 1 to 10 µM.
